What was measured:
Conditions in all cases: Preemergence, 0 to 100 scale
[1] = system: bermuda-grass; assay: Test D bermudagrass; type: in vivo, Cynodon dactylon
Procedure, shortened: (§1)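 Visual injury ratings, 0 = no injury to 100 = complete control, taken 14 to 21 days after treatment. Test chemicals were in a surfactant-containing non-phytotoxic solvent; preemergence treatments went onto the sandy loam surface of seeded greenhouse pots within one day of sowing.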

[2] = system: common pursiane; assay: Test D common purslane; type: in vivo, Portulaca oleracea
Procedure, shortened: as §1

[3] = system: common ragweed; assay: Test D common ragweed; type: in vivo, Ambrosia elatior
Procedure, shortened: as §1

[4] = system: common groundsel; assay: Test D common groundsel; type: in vivo, Senecio vulgaris
Procedure, shortened: as §1

[5] = system: dallisgrass; assay: Test D dallisgrass; type: in vivo, Paspalum dilatatum
Procedure, shortened: as §1

[6] = system: goosegrass; assay: Test D goosegrass; type: in vivo, Eleusine indica
Procedure, shortened: as §1

[7] = system: itchgrass; assay: Test D itchgrass; type: in vivo, Rottboellia exaltata
Procedure, shortened: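 Scoring used a 0–100 visual injury scale, with 0 meaning no effect and 100 complete control, assessed 14–21 days after application alongside untreated pots. Preemergence treatments went onto sandy loam surfaces of separately potted seeds within a day of sowing.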

[8] = system: Johnson grass; assay: Test D Johnson grass; type: in vivo, Sorghum halepense
Procedure, shortened: as §1

[9] = system: large crabgrass; assay: Test D large crabgrass; type: in vivo, Digitaria sanguinalis
Procedure, shortened: as §1

[10] = system: pitted morningglory; assay: Test D pitted morningglory; type: in vivo, Ipomoea lacunosa
Procedure, shortened: as §1

[11] = system: purple nutsedge; assay: Test D purple nutsedge; type: in vivo, Cyperus rotundus
Procedure, shortened: as §1

[12] = system: sandbur; assay: Test D sandbur; type: in vivo, Cenchrus echinatus
Procedure, shortened: as §1

[13] = system: sourgrass; assay: Test D sourgrass; type: in vivo, Trichachne insularis
Description: Seeds, tubers, or plant parts of Alexandergrass (Brachiaria plantaginea), bermuda-grass (Cynodon dactylon), common pursiane (Portulaca oleracea), common ragweed (Ambrosia elatior), common groundsel (Senecio vulgaris), dallisgrass (Paspalum dilatatum), goosegrass (Eleusine indica), guineagrass (Panicum maximum), itchgrass (Rottboellia exaltata), Johnson grass (Sorghum halepense), large crabgrass (Digitaria sanguinalis), pitted morningglory (Ipomoea lacunosa), purple nutsedge (Cyperus rotundus), sandbur (Cenchrus echinatus), sourgrass (Trichachne insularis), Spanishneedles (Bidens bipinnata), surinam grass (Brachiaria decumbens) and tall mallow (Malva sylvestris) were planted into greenhouse pots of flats containing greenhouse planting medium. Plant species were grown in separate pots or individual compartments. Preemergence applications were made within one day of planting the seed or plant part.
Test chemicals were formulated in a non-phytotoxic solvent mixture which included a surfactant and applied preemergence to the surface of the pot containing seeds in a sandy loam soil. Untreated control pots and treated pots were placed in the greenhouse for growth and visually evaluated for injury 14 to 21 days after herbicide application. Plant response ratings, summarized in Table C, are based on a 0 to 100 scale where 0 is no injury and 100 is complete control. A dash (−) response means no test result.

[14] = system: surinam grass; assay: Test D surinam grass; type: in vivo, Brachiaria decumbens
Procedure, shortened: as §1

[15] = system: Green foxtail; assay: Test D green foxtail; type: in vivo
Procedure, shortened: as §1

[16] = Rate 64 g/ha, 0 no injury, 100 complete control
[17] = Rate 125 g/ha, 0 no injury, 100 complete control
[18] = Rate 16 g/ha, 0 no injury, 100 complete control
[19] = Rate 32 g/ha, 0 no injury, 100 complete control

With `CC(C)N(C(=O)n1oc(=O)n(C)c1=O)c1ccc(F)cc1` [Compound 138] the “Plant response rating, Bermudagrass” value [1, 16] was 100, the “Plant response rating, Bermudagrass” value [1, 17] was 100 and the “Plant response rating, Bermudagrass” value ([1]; Rate 250 g/ha) was 100. For the same compound, the “Plant response rating, Bermudagrass” value ([1]; Rate 500 g/ha) was 100, the “Plant response rating, C. purslane” value [2, 16] was 0 and the “Plant response rating, C. purslane” value [2, 17] was 30. The “Plant response rating, C. purslane” value ([2]; Rate 250 g/ha) was 100, the “Plant response rating, C. purslane” value ([2]; Rate 500 g/ha) was 100 and the “Plant response rating, C. ragweed” value [3, 16] was 10. For the same compound, the “Plant response rating, C. ragweed” value [3, 17] was 30, the “Plant response rating, C. ragweed” value ([3]; Rate 250 g/ha) was 60 and the “Plant response rating, C. ragweed” value ([3]; Rate 500 g/ha) was 100. For the same compound, the “Plant response rating, Com. groundsel” value [4, 16] was 40, the “Plant response rating, Com. groundsel” value [4, 17] was 100 and the “Plant response rating, Com. groundsel” value ([4]; Rate 250 g/ha) was 100. The “Plant response rating, Com. groundsel” value ([4]; Rate 500 g/ha) was 100, the “Plant response rating, Dallisgrass” value [5, 16] was 100 and the “Plant response rating, Dallisgrass” value [5, 17] was 100. The “Plant response rating, Dallisgrass” value ([5]; Rate 250 g/ha) was 100, the “Plant response rating, Dallisgrass” value ([5]; Rate 500 g/ha) was 100 and the “Plant response rating, Goosegrass” value [6, 16] was 98. For the same compound, the “Plant response rating, Goosegrass” value [6, 17] was 100, the “Plant response rating, Goosegrass” value ([6]; Rate 250 g/ha) was 100 and the “Plant response rating, Goosegrass” value ([6]; Rate 500 g/ha) was 100. For the same compound, the “Plant response rating, Itchgrass” value [7, 16] was 30, the “Plant response rating, Itchgrass” value [7, 17] was 80 and the “Plant response rating, Itchgrass” value ([7]; Rate 250 g/ha) was 100. For the same compound, the “Plant response rating, Itchgrass” value ([7]; Rate 500 g/ha) was 100, the “Plant response rating, Johnsongrass” value [8, 16] was 40 and the “Plant response rating, Johnsongrass” value [8, 17] was 65. The “Plant response rating, Johnsongrass” value ([8]; Rate 250 g/ha) was 100, the “Plant response rating, Johnsongrass” value ([8]; Rate 500 g/ha) was 100 and the “Plant response rating, Large crabgrass” value [9, 16] was 100. The “Plant response rating, Large crabgrass” value [9, 17] was 100, the “Plant response rating, Large crabgrass” value ([9]; Rate 250 g/ha) was 100 and the “Plant response rating, Large crabgrass” value ([9]; Rate 500 g/ha) was 100. The “Plant response rating, P. morninglory” value [10, 16] was 65, the “Plant response rating, P. morninglory” value [10, 17] was 65 and the “Plant response rating, P. morninglory” value ([10]; Rate 250 g/ha) was 65. The “Plant response rating, P. morninglory” value ([10]; Rate 500 g/ha) was 65, the “Purple nutsedge plant response rating” value [11, 16] was 30 and the “Purple nutsedge plant response rating” value [11, 17] was 65. The “Plant response rating, Purple nutsedge” value ([11]; Rate 250 g/ha) was 75, the “Plant response rating, Purple nutsedge” value ([11]; Rate 500 g/ha) was 80 and the “Sandbur plant response rating” value [12, 16] was 65. For the same compound, the “Sandbur plant response rating” value [12, 17] was 65, the “Plant response rating, Sandbur” value ([12]; Rate 250 g/ha) was 98 and the “Plant response rating, Sandbur” value ([12]; Rate 500 g/ha) was 100. The “Plant response rating Sourgrass” value [13, 16] was 98, the “Plant response rating Sourgrass” value [13, 17] was 100 and the “Plant response rating Sourgrass” value ([13]; Rate 500 g/ha) was 100. For the same compound, the “Surinam grass plant response rating” value [14, 16] was 40, the “Surinam grass plant response rating” value [14, 17] was 85 and the “Plant response rating, Surinam grass” value ([14]; Rate 250 g/ha) was 98. For the same compound, the “Plant response rating, Surinam grass” value ([14]; Rate 500 g/ha) was 100, the “Plant response rating, Green foxtail” value ([15]; Rate 250 g/ha) was 100 and the “Plant response rating, Green foxtail” value ([15]; Rate 500 g/ha) was 100.
With `COc1ccccc1-n1c(=O)on(C(=O)N(c2ccc(F)cc2)C(C)C)c1=O` [Compound 30] the “Plant response rating, Bermudagrass” value [1, 18] was 50, the “Plant response rating, Bermudagrass” value [1, 19] was 65 and the “Plant response rating, Bermudagrass” value [1, 16] was 98. For the same compound, the “Plant response rating, Bermudagrass” value [1, 17] was 98, the “Plant response rating, Bermudagrass” value ([1]; Rate 250 g/ha) was 98 and the “Plant response rating, Bermudagrass” value ([1]; Rate 500 g/ha) was 100. For the same compound, the “Plant response rating, C. purslane” value [2, 18] was 0, the “Plant response rating, C. purslane” value [2, 19] was 0 and the “Plant response rating, C. purslane” value [2, 16] was 0. The “Plant response rating, C. purslane” value [2, 17] was 0, the “Plant response rating, C. purslane” value ([2]; Rate 250 g/ha) was 0 and the “Plant response rating, C. purslane” value ([2]; Rate 500 g/ha) was 0. For the same compound, the “Plant response rating, C. ragweed” value [3, 18] was 0, the “Plant response rating, C. ragweed” value [3, 19] was 0 and the “Plant response rating, C. ragweed” value [3, 16] was 0. The “Plant response rating, C. ragweed” value [3, 17] was 0, the “Plant response rating, C. ragweed” value ([3]; Rate 250 g/ha) was 0 and the “Plant response rating, C. ragweed” value ([3]; Rate 500 g/ha) was 0. The “Plant response rating, Com. groundsel” value [4, 18] was 0, the “Plant response rating, Com. groundsel” value [4, 19] was 0 and the “Plant response rating, Com. groundsel” value [4, 16] was 0. The “Plant response rating, Com. groundsel” value [4, 17] was 0, the “Plant response rating, Com. groundsel” value ([4]; Rate 250 g/ha) was 0 and the “Plant response rating, Com. groundsel” value ([4]; Rate 500 g/ha) was 100. The “Plant response rating, Dallisgrass” value [5, 18] was 0, the “Plant response rating, Dallisgrass” value [5, 19] was 0 and the “Plant response rating, Dallisgrass” value [5, 16] was 50. The “Plant response rating, Dallisgrass” value [5, 17] was 60, the “Plant response rating, Dallisgrass” value ([5]; Rate 250 g/ha) was 80 and the “Plant response rating, Dallisgrass” value ([5]; Rate 500 g/ha) was 100. For the same compound, the “Plant response rating, Goosegrass” value [6, 18] was 30, the “Plant response rating, Goosegrass” value [6, 19] was 40 and the “Plant response rating, Goosegrass” value [6, 16] was 70. The “Plant response rating, Goosegrass” value [6, 17] was 85, the “Plant response rating, Goosegrass” value ([6]; Rate 250 g/ha) was 85 and the “Plant response rating, Goosegrass” value ([6]; Rate 500 g/ha) was 98. For the same compound, the “Plant response rating, Itchgrass” value [7, 18] was 20, the “Plant response rating, Itchgrass” value [7, 19] was 20 and the “Plant response rating, Itchgrass” value [7, 16] was 40. For the same compound, the “Plant response rating, Itchgrass” value [7, 17] was 75, the “Plant response rating, Itchgrass” value ([7]; Rate 250 g/ha) was 75 and the “Plant response rating, Johnsongrass” value [8, 18] was 0. For the same compound, the “Plant response rating, Johnsongrass” value [8, 19] was 0, the “Plant response rating, Johnsongrass” value [8, 16] was 0 and the “Plant response rating, Johnsongrass” value [8, 17] was 0. The “Plant response rating, Johnsongrass” value ([8]; Rate 250 g/ha) was 0, the “Plant response rating, Johnsongrass” value ([8]; Rate 500 g/ha) was 40 and the “Plant response rating, Large crabgrass” value [9, 18] was 40. For the same compound, the “Plant response rating, Large crabgrass” value [9, 19] was 40, the “Plant response rating, Large crabgrass” value [9, 16] was 85 and the “Plant response rating, Large crabgrass” value [9, 17] was 98. For the same compound, the “Plant response rating, Large crabgrass” value ([9]; Rate 250 g/ha) was 98, the “Plant response rating, Large crabgrass” value ([9]; Rate 500 g/ha) was 100 and the “Plant response rating, P. morninglory” value [10, 18] was 0. For the same compound, the “Plant response rating, P. morninglory” value [10, 19] was 0, the “Plant response rating, P. morninglory” value [10, 16] was 0 and the “Plant response rating, P. morninglory” value [10, 17] was 0. For the same compound, the “Plant response rating, P. morninglory” value ([10]; Rate 250 g/ha) was 0, the “Plant response rating, P. morninglory” value ([10]; Rate 500 g/ha) was 0 and the “Plant response rating, Purple nutsedge” value [11, 18] was 0. The “Plant response rating, Purple nutsedge” value [11, 19] was 0, the “Purple nutsedge plant response rating” value [11, 16] was 0 and the “Purple nutsedge plant response rating” value [11, 17] was 0. The “Plant response rating, Purple nutsedge” value ([11]; Rate 250 g/ha) was 0, the “Plant response rating, Purple nutsedge” value ([11]; Rate 500 g/ha) was 0 and the “Plant response rating, Sandbur” value [12, 18] was 0. For the same compound, the “Plant response rating, Sandbur” value [12, 19] was 0, the “Sandbur plant response rating” value [12, 16] was 0 and the “Sandbur plant response rating” value [12, 17] was 40. The “Plant response rating, Sandbur” value ([12]; Rate 250 g/ha) was 40, the “Plant response rating, Sandbur” value ([12]; Rate 500 g/ha) was 100 and the “Plant response rating Sourgrass” value [13, 16] was 100. The “Plant response rating, Surinam grass” value [14, 19] was 40, the “Surinam grass plant response rating” value [14, 16] was 40 and the “Surinam grass plant response rating” value [14, 17] was 40. The “Plant response rating, Surinam grass” value ([14]; Rate 250 g/ha) was 85, the “Plant response rating, Surinam grass” value ([14]; Rate 500 g/ha) was 85 and the “Plant response rating, Green foxtail” value ([15]; Rate 250 g/ha) was 100. For the same compound, the “Plant response rating, Green foxtail” value ([15]; Rate 500 g/ha) was 100.

Source: patent publication US6737383B1, “Herbicidal oxadiazolidines” (priority 1999, dated 2004)
